Results as given in patent US6215002A, “Pyrrolopyrrolone derivatives as inhibitors of neutrophil elastase” (priority 1996, dated 2001).
Counter-ions that a name gives are not always drawn.

What follows are compounds tested against T1, human neutrophil elastase (Homo sapiens, UniProt P08246) (assay: In vitro assay of human neutrophil elastase (HNE)). Conditions: 118 nM purified human neutrophil elastase, pH 8.6, 15 min incubation at 30° C., MeO-succinyl-alanyl-alanyl-prolyl-valyl-p-nitroanilide substrate; read-out: HNE IC50.
T1 sequence (P08246 30-267): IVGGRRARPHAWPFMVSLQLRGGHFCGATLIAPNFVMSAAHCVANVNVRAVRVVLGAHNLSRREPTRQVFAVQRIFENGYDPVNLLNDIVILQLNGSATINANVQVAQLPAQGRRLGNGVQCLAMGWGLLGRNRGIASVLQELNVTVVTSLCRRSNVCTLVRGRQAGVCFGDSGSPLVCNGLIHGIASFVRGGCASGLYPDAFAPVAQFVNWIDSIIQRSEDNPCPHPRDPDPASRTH
Type: biochemical
Procedure, shortened: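 Residual activity was taken as the 10 min rate of absorbance rise at 405 nm after adding 0.6 mM MeO-succinyl-AAPV-p-nitroanilide. Curve fitting of activity against concentration gave IC50.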
`C=CC[C@H]1C(=O)N(S(=O)(=O)c2ccc3ccccc3c2)[C@H]2CCN(C(=O)OCc3ccccc3)[C@H]12` [Example 55, (3aS,6R,6aR)-6-Allyl-4-(naphthalene-2-sulfonyl)-5-oxo-hexahydro-pyrrolo[3,2-b]pyrrole-1-carboxylic acid benzyl ester] showed an IC50 of 0.038 µM. Work on `CO[C@H]1C(=O)N(S(C)(=O)=O)[C@H]2CCN(C(=O)OCc3ccccc3)[C@H]12` (relative stereo) [Example 156, rel-(3aS,6R,6aS)-4-Methanesulfonyl-6-methoxy-5-oxo-hexahydro-pyrrolo[3,2-b]pyrrole-1-carboxylic acid benzyl ester] yielded an IC50 of 0.16 µM. With `CCC[C@H]1C(=O)N(S(C)(=O)=O)[C@H]2CCN(C(=O)CCCCCN3CCC3)[C@H]12` (relative stereo) [Example 78, rel-(3R,3aR,6aS)-4-(6-Azetidin-1-yl-hexanoyl)-1-methanesulfonyl-3-propyl-hexahydro-pyrrolo[3,2-b]pyrrol-2-one DL-tartrate] the IC50 was 0.087 µM. For `CC(=O)Nc1ccc(S(=O)(=O)N2CC[C@H]3[C@H]2[C@@H](C(C)C)C(=O)N3S(C)(=O)=O)cc1` (relative stereo) [Example 210, rel-N-[4-(6R-Isopropyl-4-methanesufonyl-5-oxo-hexahydro-(3aS,6aR)-pyrrolo[3,2-b]pyrrole-1-sulfonyl)-phenyl]-acetamide], the IC50 was 0.103 µM. `CCC[C@H]1C(=O)N(S(C)(=O)=O)[C@H]2CCN(C(=O)/C=C/c3ccc(CN4CCCCC4)cc3)[C@H]12` (relative stereo) [Example 133, rel-(3R,3aR,6aS)-1-Methanesulfonyl-4-[3-(4-piperidin-1-ylmethyl-phenyl)-(E)-acryloyl]-3-propyl-hexahydro-pyrrolo[3,2-b]pyrrol-2-one hydrochloride] gave an IC50 of 0.061 µM. `CC(C)[C@H]1C(=O)N(S(C)(=O)=O)[C@H]2CCN(S(=O)(=O)c3ccc(C(F)(F)F)cc3)[C@H]12` (relative stereo) [Example 228, rel-(3R,3aR,6aS)-3-Isopropyl-1-methanesulfony]4-(4-trifluoromethyl-benzenesulfonyl)-hexahydro-pyrrolo[3,2-b]pyrrol-2-one] showed an IC50 of 0.068 µM. In the case of `CCC[C@H]1C(=O)N(S(C)(=O)=O)[C@H]2CCN(C(=O)CN3CCOCC3)[C@H]12` (relative stereo) [Example 107, rel-(3R,3aR,6aS)-1-Methanesulfonyl-4-morpholin-4-yl-acetyl)-3-propyl-hexahydro-pyrrolo[3,2-b]pyrrol-2-one hydrochloride], the IC50 is reported as 0.143 µM. Work on `CCC[C@H]1C(=O)N(S(C)(=O)=O)[C@H]2CCN(C(=O)CCN3CCOCC3)[C@H]12` (relative stereo) [Example 46, rel-(3R,3aR,6aS)-1-Methanesulfonyl-4-(3-morpholin-4-yl-propionyl)-3-propyl-hexahydro-pyrrolo[3,2-b]pyrrol-2-one] yielded an IC50 of 0.143 µM. `CCC[C@H]1C(=O)N(S(C)(=O)=O)[C@H]2CCN(C(=O)CCC(N)=O)[C@H]12` (relative stereo) [Example 95, rel-4-(4-Methanesulfonyl-5-oxo-6R-propyl-hexahydro-(3aS,6aR)-pyrrolo[3,2-b]pyrrol-1-yl)-4-oxo-butyramide] gave an IC50 of 0.084 µM. Work on `CCC[C@H]1C(=O)N(S(=O)(=O)c2cccc3ccccc23)[C@H]2CCN(C(=O)C3CCNCC3)[C@H]12` (relative stereo) [Example 17, trifluoroacetate] yielded an IC50 of 0.342 µM. In the case of `C=CC[C@H]1C(=O)N(S(=O)(=O)c2cc3ccccc3s2)[C@@H]2CCN(C(=O)OCc3ccccc3)[C@H]21` (relative stereo) [Example 42, rel-(3aR,6R,6aS)-6-Allyl-4-(benzo[b]thiophene-2-sulfonyl)-5-oxo-hexahydro-pyrrolo[3,2-b]pyrrole-1-carboxylic acid benzyl ester], the IC50 is reported as 0.078 µM. `CCC[C@H]1C(=O)N(S(C)(=O)=O)[C@H]2CCN(C(=O)CN3CCN(C)CC3)[C@H]12` (relative stereo) [Example 105, rel-(3R,3aR,6aS)-1-Methanesulfonyl-4-[(4-methyl-piperazin-1-yl)-acetyl]-3-propyl-hexahydro-pyrrolo[3,2-b]pyrrol-2-one hydrochloride] gave an IC50 of 0.193 µM. Work on `CCC[C@H]1C(=O)N(S(=O)(=O)c2cccc3ccccc23)[C@H]2CCN(S(=O)(=O)CCCN3CCOCC3)[C@H]12` (relative stereo) [Example 36, rel-(3R,3aR,6aS)-4-(3-Morpholin-4-yl-propane-1-sulfonyl)-1-(naphthalene-1-sulfonyl)-3-propyl-hexahydro-pyrrolo[3,2-b]pyrrol-2-one] yielded an IC50 of 0.125 µM. With `CCC[C@H]1C(=O)N(S(C)(=O)=O)[C@H]2CCN(S(=O)(=O)CCCN3CCN(C)CC3)[C@H]12` (relative stereo) [Example 10, rel-(3R,3aR,6aS)-1-Methanesulfonyl-4-[3-(4-methyl-piperazin-1-yl)-propane-1-sulfonyl]3-propyl-hexahydro-pyrrolo[3,2-b]pyrrol-2-one dihydrochloride] the IC50 was 0.039 µM. With `CCC[C@H]1C(=O)N(S(=O)(=O)c2cccc3c2NCCC3)[C@H]2CCN(C(=O)OCc3ccccc3)[C@H]12` (relative stereo) [Example 50, rel-(3aS,6R,6aR)-5-Oxo-6-propyl-4-(1,2,3,4-tetrahydro-quinoline-8-sulfonyl-hexahydro-pyrrolo[3,2-b]pyrrole-1-carboxylic acid benzyl ester] the IC50 was 0.362 µM. With `C=CC[C@H]1C(=O)N(S(=O)(=O)c2csc3ccccc23)[C@H]2CCN(C(=O)OCc3ccccc3)[C@H]12` (relative stereo) [Example 41, rel-(3aS,6R,6aR)-6-Allyl-4-(benzo[b]thiophene-3-sulfonyl)-5-oxo-hexahydro-pyrrolo[3,2-b]pyrrole-1-carboxylic acid benzyl ester] the IC50 was 0.084 µM. For `CCCCS(=O)(=O)N1C(=O)[C@H](CCC)[C@@H]2[C@@H]1CCN2S(=O)(=O)CCCN1CCCCC1` (relative stereo) [Example 167, rel-(3R,3aR,6aS)-1-(Butane-1-sulfonyl)-4-(3-piperidin-1-yl-propane-1-sulfonyl)-3-propyl-hexahydro-pyrrolo[3,2-b]pyrrol-2-one DL-tartrate], the IC50 was 0.038 µM. With `CCC[C@H]1C(=O)N(S(C)(=O)=O)[C@H]2CCN(C(=O)/C=C/C(=O)N3CCN(C)CC3)[C@H]12` (relative stereo) [Example 130, rel-(3R,3aR,6aS)-1-(4-Methanesulfonyl-5-oxo-6-propyl-hexahydro-pyrrolo[3,2-b]pyrrol-1-yl)-4-(4-methyl-piperazin-1-yl)-but-2E-ene-1,4-dione hydrochloride] the IC50 was 0.047 µM. Work on `CCC[C@H]1C(=O)N(S(C)(=O)=O)[C@H]2CCN(C(=O)CCCN3CCCCCC3)[C@H]12` (relative stereo) [Example 86, hydrochloride] yielded an IC50 of 0.103 µM. `CCC[C@H]1C(=O)N(S(C)(=O)=O)[C@H]2CCN(C(=O)Cn3ccc(=O)cc3)[C@H]12` (relative stereo) [Example 113, rel-(3R,3aR,6aS)-1-Methanesulfonyl-4-[(4-oxo-4H-pyridin-1-yl)-acetyl]-3-propyl-hexahydro-pyrrolo[3,2-b]pyrrol-2-one] gave an IC50 of 0.304 µM.

Same assay, conditions: HNE IC50, 118 nM purified human neutrophil elastase, pH 8.6, 15 min incubation at 30° C., MeO-succinyl-alanyl-alanyl-prolyl-valyl-p-nitroanilide substrate
With `CCC[C@H]1C(=O)N(S(C)(=O)=O)[C@H]2CCN(C(=O)CCCCCN3C4CCCC3CC4)[C@H]12` (relative stereo) [Example 75, rel-(3R,3aR,6aS)-4-(6-8-Aza-bicyclo[3.2. 1]oct-8-yl-hexanoyl)-1-methanesulfonyl-3-propyl-hexahydro-pyrrolo[3,2-b]pyrrol-2-one hydrochloride] the IC50 was 0.033 µM.
